Reference: US10010541B2, “Modulation of tissue transglutaminase activation in disease” (The Board of Trustees of the Leland Stanford Junior …, priority 2014, dated 2018)

Experiments:
TG2 = molecular target: T1, TG2 (Homo sapiens, UniProt P21980); assay: glutamate dehydrogenase-coupled deamidation assay, substrate Cbz-Gln-Gly; type: biochemical; settings: irreversible inhibition model, full progress curves
T1 sequence (P21980 1-687): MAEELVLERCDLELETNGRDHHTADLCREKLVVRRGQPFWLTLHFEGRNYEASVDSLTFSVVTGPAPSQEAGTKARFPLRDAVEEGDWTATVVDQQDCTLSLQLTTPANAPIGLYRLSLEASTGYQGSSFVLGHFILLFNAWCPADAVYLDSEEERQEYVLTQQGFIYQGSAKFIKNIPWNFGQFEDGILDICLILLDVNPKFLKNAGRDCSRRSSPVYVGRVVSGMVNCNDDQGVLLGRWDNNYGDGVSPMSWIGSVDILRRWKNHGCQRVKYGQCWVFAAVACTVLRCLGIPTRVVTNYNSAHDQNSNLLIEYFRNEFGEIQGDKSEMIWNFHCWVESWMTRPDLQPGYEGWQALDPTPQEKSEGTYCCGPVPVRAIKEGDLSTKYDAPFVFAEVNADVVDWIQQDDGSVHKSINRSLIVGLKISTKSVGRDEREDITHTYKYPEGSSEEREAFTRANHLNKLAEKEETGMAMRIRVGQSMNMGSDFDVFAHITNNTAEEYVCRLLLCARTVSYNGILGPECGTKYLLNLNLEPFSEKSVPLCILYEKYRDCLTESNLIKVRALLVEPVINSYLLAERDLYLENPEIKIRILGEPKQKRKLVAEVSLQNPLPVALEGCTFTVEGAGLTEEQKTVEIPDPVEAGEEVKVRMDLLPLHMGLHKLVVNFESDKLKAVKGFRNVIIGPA

TG1 = molecular target: T2, TG1 (Homo sapiens, UniProt P22735); assay: glutamate dehydrogenase-coupled deamidation assay, substrate Cbz-Gln-Ser; type: biochemical; settings: irreversible inhibition model, full progress curves
T2 sequence (P22735 1-817): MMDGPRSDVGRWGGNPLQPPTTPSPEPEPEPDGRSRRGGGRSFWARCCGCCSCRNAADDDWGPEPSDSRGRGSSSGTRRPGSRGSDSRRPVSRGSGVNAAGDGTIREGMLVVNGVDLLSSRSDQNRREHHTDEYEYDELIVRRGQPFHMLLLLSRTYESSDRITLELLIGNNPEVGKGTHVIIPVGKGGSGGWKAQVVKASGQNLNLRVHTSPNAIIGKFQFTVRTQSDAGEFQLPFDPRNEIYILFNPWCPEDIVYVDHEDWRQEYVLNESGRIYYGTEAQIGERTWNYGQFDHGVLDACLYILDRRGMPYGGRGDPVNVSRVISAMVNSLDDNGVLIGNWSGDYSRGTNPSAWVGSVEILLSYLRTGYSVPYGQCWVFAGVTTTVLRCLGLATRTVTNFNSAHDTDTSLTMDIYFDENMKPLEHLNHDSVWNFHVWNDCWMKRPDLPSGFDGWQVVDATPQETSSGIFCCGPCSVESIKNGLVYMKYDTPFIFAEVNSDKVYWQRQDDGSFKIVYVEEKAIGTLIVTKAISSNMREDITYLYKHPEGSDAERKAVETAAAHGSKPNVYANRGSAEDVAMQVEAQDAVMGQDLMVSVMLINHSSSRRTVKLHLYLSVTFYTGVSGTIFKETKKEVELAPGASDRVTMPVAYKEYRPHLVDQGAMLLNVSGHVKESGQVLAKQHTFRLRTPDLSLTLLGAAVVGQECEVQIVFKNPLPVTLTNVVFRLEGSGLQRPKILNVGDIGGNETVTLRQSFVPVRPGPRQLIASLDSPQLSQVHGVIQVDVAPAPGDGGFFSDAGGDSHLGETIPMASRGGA

SMILES	kinh/Ki TG2 (TG2) [M⁻¹ s⁻¹]	kinh/Ki TG1 (TG1) [M⁻¹ s⁻¹]
O=C(NC[C@@H]1CC(Br)=NO1)[C@@H]1C[C@@H](c2ccccc2)CN1C(=O)OCc1cnc2ccccc2c1 [Compound 8, (2S,4S)-quinolin-3-ylmethyl 2-((((S)-3-bromo-4,5-dihydroisoxazol-5-yl)methyl)carbamoyl)-4-phenylpyrrolidine-1-carboxylate]	810	1100
O=C(NC[C@@H]1CC(Br)=NO1)[C@@H]1C[C@@H](c2cccc(Cl)c2)CN1C(=O)OCc1cnc2ccccc2c1 [Compound 13, (2S,4S)-quinolin-3-ylmethyl 2-((((S)-3-bromo-4,5-dihydroisoxazol-5-yl)methyl)carbamoyl)-4-(3-chlorophenyl)pyrrolidine-1-carboxylate]	422	695
O=C(NC[C@@H]1CC(Br)=NO1)[C@@H]1C[C@@H](c2cccc(O)c2)CN1C(=O)OCc1cnc2ccccc2c1 [Compound 11, (2S,4S)-quinolin-3-ylmethyl 2-((((S)-3-bromo-4,5-dihydroisoxazol-5-yl)methyl)carbamoyl)-4-(3-hydroxyphenyl)pyrrolidine-1-carboxylate]	870	645
O=C(NC[C@@H]1CC(Br)=NO1)[C@@H]1C[C@@H](c2ccc(O)cc2)CN1C(=O)OCc1cnc2ccccc2c1 [Compound 12, (2S,4S)-quinolin-3-ylmethyl 2-((((S)-3-bromo-4,5-dihydroisoxazol-5-yl)methyl)carbamoyl)-4-(4-hydroxyphenyl)pyrrolidine-1-carboxylate]	1520	1510
O=C(N[C@@H]1C[C@@H](C(=O)NC[C@@H]2CC(Br)=NO2)N(C(=O)OCc2cnc3ccccc3c2)C1)c1cccc(O)c1 [Compound 3, (2S,4R)-quinolin-3-ylmethyl 2-((((S)-3-bromo-4,5-dihydroisoxazol-5-yl)methyl)carbamoyl)-4-(3-hydroxybenzamido)pyrrolidine-1-carboxylate]	603	302
O=C(NC[C@@H]1CC(Br)=NO1)[C@@H]1C[C@@H](c2ccc(Cl)cc2)CN1C(=O)OCc1cnc2ccccc2c1 [Compound 14, (2S,4S)-quinolin-3-ylmethyl 2-((((S)-3-bromo-4,5-dihydroisoxazol-5-yl)methyl)carbamoyl)-4-(4-chlorophenyl)pyrrolidine-1-carboxylate]	200	257
O=C(NC[C@@H]1CC(Br)=NO1)[C@@H]1C[C@H](c2ccccc2)CN1C(=O)OCc1cnc2ccccc2c1 [Compound 9, (2S,4R)-quinolin-3-ylmethyl 2-((((S)-3-bromo-4,5-dihydroisoxazol-5-yl)methyl)carbamoyl)-4-phenylpyrrolidine-1-carboxylate]	295	287
O=C(NC[C@@H]1CC(Br)=NO1)[C@@H]1C[C@@H](c2c[nH]c3ccc(F)cc23)CN1C(=O)OCc1cnc2ccccc2c1 [Compound 15, (2S,4S)-quinolin-3-ylmethyl 2-((((S)-3-bromo-4,5-dihydroisoxazol-5-yl)methyl)carbamoyl)-4-(5-fluoro-1H-indol-3-yl)pyrrolidine-1-carboxylate]	307	800
O=C(N[C@@H]1C[C@@H](C(=O)NC[C@@H]2CC(Br)=NO2)N(C(=O)OCc2cnc3ccccc3c2)C1)c1ccc(O)cc1 [Compound 4, (2S,4R)-quinolin-3-ylmethyl 2-((((S)-3-bromo-4,5-dihydroisoxazol-5-yl)methyl)carbamoyl)-4-(4-hydroxybenzamido)pyrrolidine-1-carboxylate]	940	522
O=C(NC[C@@H]1CC(Br)=NO1)[C@@H]1C[C@@H](NC(=O)C2(C(=O)O)CCC2)CN1C(=O)OCc1cnc2ccccc2c1 [Compound 7, 1-(((3R,5S)-5-((((S)-3-bromo-4,5-dihydroisoxazol-5-yl)methyl)carbamoyl)-1-((quinolin-3-ylmethoxy)carbonyl)pyrrolidin-3-yl)carbamoyl)cyclobutanecarboxylic acid]	230	96.7
O=C(N[C@@H]1C[C@@H](C(=O)NC[C@@H]2CC(Br)=NO2)N(C(=O)OCc2cnc3ccccc3c2)C1)c1ccccc1 [Compound 1, (2S,4R)-quinolin-3-ylmethyl 4-benzamido-2-((((S)-3-bromo-4,5-dihydroisoxazol-5-yl)methyl)carbamoyl)pyrrolidine-1-carboxylate]	430	410
O=C(N[C@@H]1C[C@@H](C(=O)NC[C@@H]2CC(Br)=NO2)N(C(=O)OCc2cnc3ccccc3c2)C1)c1cnccn1 [Compound 6, (2S,4R)-quinolin-3-ylmethyl 2-((((S)-3-bromo-4,5-dihydroisoxazol-5-yl)methyl)carbamoyl)-4-(pyrazine-2-carboxamido)pyrrolidine-1-carboxylate]	262	200
O=C(N[C@@H]1C[C@@H](C(=O)NC[C@@H]2CC(Br)=NO2)N(C(=O)OCc2cnc3ccccc3c2)C1)c1ccccc1O [Compound 2, (2S,4R)-quinolin-3-ylmethyl 2-((((S)-3-bromo-4,5-dihydroisoxazol-5-yl)methyl)carbamoyl)-4-(2-hydroxybenzamido)pyrrolidine-1-carboxylate]	618	452
O=C(NC[C@@H]1CC(Br)=NO1)[C@@H]1C[C@@H](c2ccccc2O)CN1C(=O)OCc1cnc2ccccc2c1 [Compound 10, (2S,4S)-quinolin-3-ylmethyl 2-((((S)-3-bromo-4,5-dihydroisoxazol-5-yl)methyl)carbamoyl)-4-(2-hydroxyphenyl)pyrrolidine-1-carboxylate]	563	492
